# Entries after “also recorded” stand apart in the source; their conditions may differ. Where two headings read alike, the source gives them in different places. Marks after values point to notes of the source that are not given here.
# Key:
# [1] = system: NNK/B(a)P-induced lung adenomas and adenocarcinomas; conditions: for mean numbers of lung adenomas compared with carcinogen control mice: at termination; for Adenocarcinoma Incidence (%) / Adenocarcinoma Multiplicity mean ± SD / Adenoma Incidence (%) / Adenoma Multiplicity mean ± SD: preliminary
# Method: The test compounds were given in the diet on week 21 after beginning of a weekly dose of a mixture of NNK/B(a)P: 3 μmol each (621 μg NNK and 756 μg B(a)P) in 0.1 ml cottonseed oil for eight weeks (a total of 8 doses) (groups 1 to 10); only vehicle (cottonseed oil) for groups 11 to 15. Animals were then given experimental diet for 20 weeks until week 40. Four mice in groups 1, 2, 4, 6, 8, and 10 (see Table 1) were sacrificed on weeks 20, 38, and 40. The bioassay was terminated on week 52. If sufficient numbers of tumors were developed in mice killed on week 40, the bioassay was terminated at week 40. Tumors (adenomas and carcinomas) were quantified by multiplicity and incidence. At sacrifice, livers and lungs were harvested and the tissues rinsed in autoclaved PBS, stored in labeled foil, and snap frozen in liquid nitrogen. These tissues both tumorous and non-tumorous were processed by histology for biomarker studies (TUNEL, PCNA,p53, […] kinases, etc.). Lungs were examined by histology at termination (52 week or 40 week) for adenomas and carcinomas).
# In this study, the potential protective effects of ITCs and ITC-NACs against progression of lung adenomas to malignant tumors were investigated. Lung tumors were induced in A/J mice with 3 μmol B(a)P plus 3 μmol NNK (gavage once/wk, 8 wks); mice were maintained on AIN-76A semi-purified diets. […] Diets containing PEITC (phenethyl ITC) or SFN (sulforaphane), each at 3 mmol/kg and 1.5 mmol/kg diet; PEITC-NAC or SFN-NAC at 8 mmol/kg and 4 mmol/kg diet; and NAC at 8 mmol/kg diet were then provided to groups of 28 mice (high dose) or 20 mice (low dose) during weeks 20 to 40 after initiation. Four mice in each high dose treatment group were killed during weeks 28 and 40 to monitor tumor incidence and progression; lung tissues were used for molecular studies. Remaining mice were killed at 40 weeks for histopathological examination. […] To assess molecular events occurring during the treatments, lung RNA of mice treated with B(a)P+NNK/control diet and B(a)P+NNK/PEITC-NAC high dose diet was examined using a Mouse Cancer Pathway Finder Gene Array.
# [2] = system: alveolar epithelium cells of lung; assay: In situ end-labeling (ISEL/TUNEL) of apoptosis in lung sections; assay type: in vivo, A/J mice
# JNK 1 and 2 = assay: Western blot of lung total proteins: JNK phosphorylation; assay type: in vivo, A/J mice; conditions: lung tissue 21 days after B(a)P
# p53 [3] = assay: Western blot of lung proteins: p53 expression and phosphorylation; assay type: in vivo, A/J mice; conditions: lungs at termination of the bioassay
# [4] = system: B(a)P-induced lung adenoma; assay: Tumor bioassay: B(a)P-induced lung tumorigenesis, ITC-NAC conjugates in diet during post-initiation phase
# Method: The ITC conjugates were incorporated (15 μmol/g diet) into AIN-76A diets (5% corn oil) by mixing with dextrose prior to diet preparation. The conjugates, 9.36 g BITC-NAC (15 mmol) or 9.79 g PEITC-NAC (15 mmol), were dissolved in 50 ml ethyl acetate, and then mixed with 200 g dextrose to ensure even coating of dextrose particles. After mixing with dextrose, the solvent was removed using a rotary evaporator and further dried using a vacuum pump (2-3 h). Diets were prepared in 1-2 kg batches, and were stored at 4° C. in a container purged with nitrogen. […] Stability was determined by extraction of 0.5 g portions of the diet with 2.5 ml methanol (2×). The methanol extracts were combined and a 1 ml aliquot was filtered using a 0.47 μm syringe filter. A 10 μl sample was then analyzed on HPLC (Jiao, et al., Chem. Res. Toxicol., 9: 932-938, 1996).
# Tumor Bioassay: Female strain A mice (Jackson Laboratories, Bar Harbor, Me.) of four weeks of age were housed under quarantine in polycarbonate cages (5 mice/cage) and provided modified AIN 76A diet (5% corn oil) and acidified drinking water ad libitum. The mice were maintained on a 12 h light: 12 h dark regimen at 22±5° C. and 50±20% relative humidity. After one week, the mice were weighed, and distributed into four groups containing 30 to 35 mice on the basis of body weight. At seven weeks of age, the mice in groups 1-3 were gavaged with a single dose of 20 μmol B(a)P in 0.2 ml cottonseed oil; group 4 received the vehicle only. Two days after dosing with the carcinogen, diets containing BITC-NAC (15 μmol/g, Group 2) and PEITC-NAC (15 μmol/g, Group 3) were provided. Groups 1 (B[a]P control) and 4 (vehicle only) remained on the modified AIN-76A diet with 5% corn oil. Tap water was provided ad libitum during the course of the bioassay. Mice were observed daily; diets were replenished on the fourth day of the week, and completely replaced on the seventh day. Mice were weighed weekly for four weeks, then monthly and at termination. At 84 days after B(a)P dosing, four mice per group were killed (CO2, cervical dislocation) to harvest lung tissues for molecular and immunohistochemical studies and to quantify lung adenomas, if present. At 140 days after B(a)P, the remaining mice in each group were killed. The number of lung tumors was recorded; lobes of lungs were placed in 10% phosphate buffered formalin for histological and immunohistochemical analysis. The remaining lung lobes were snap frozen in liquid nitrogen.
# Mean tumor multiplicity and body weights at each time point were compared between groups using Student's T test.
# [5] = Stability of conjugates in AIN-76A diet (methanol extraction, HPLC); assay type: physicochemical; conditions: stored at 4° C. under nitrogen
# Method: The ITC conjugates were incorporated (15 μmol/g diet) into AIN-76A diets (5% corn oil) by mixing with dextrose prior to diet preparation. […] After mixing with dextrose, the solvent was removed using a rotary evaporator and further dried using a vacuum pump (2-3 h). Diets were prepared in 1-2 kg batches, and were stored at 4° C. in a container purged with nitrogen. […] Stability was determined by extraction of 0.5 g portions of the diet with 2.5 ml methanol (2×). The methanol extracts were combined and a 1 ml aliquot was filtered using a 0.47 μm syringe filter.
# p53 [6] = conditions: mouse epidermal cell line, with accompanying apoptosis; cited from earlier work
# [7] = system: p53 (−/−) mouse embryo fibroblasts; conditions: cited from earlier work
# [8] = system: aberrant crypt foci in the colon; conditions: oral, after or independent of timing of azoxymethane; cited from earlier work
# [9] = system: AP-1 binding activity in A549 cells; assay: EMSA of AP-1 binding activity in A549 cells; assay type: cell-based, human; design: AP-1 binding activity: dose or concentration left out as unconfirmed; conditions: for 24 h
# Method: Cell Lines: The human lung adenocarcinoma cell line A549 was obtained from the American Type Culture Collection (ATCC) (Bethesda, Md.). […] Cells were grown at 37° C. with 5% CO2.
# Reagents: The PEITC was obtained from Aldrich (Milwaukee, Wis.) and its N-acetylcysteine conjugate was synthesized in house by the Organic Synthesis Facility using the method described previously (Kassahun et al., Chem Res Toxicol 1997, 10(11):1228-33). Unless specified otherwise, the A549 cells were treated with 10 or 25 μM of PEITC-NAC. TPA (12-O-tetradecanoylphorbol-13-acetate) was purchased from Sigma (St. Louis, Mo.).
# Electrophoretic Mobility Shift Assay (EMSA): Double-stranded oligonucleotides containing the consensus-binding site for AP-1 were purchased commercially (Santa Cruz Biotech). The oligos were labeled with γ-^32P-ATP (6000 Ci/mmol, Armeshem Pharmacia Biotech. Inc Piscataway, N.J.) using polynucleotide kinase (Promega, Madison, Wis.) according to standard procedures. The labeled DNA was incubated with 5 μg of total proteins (as specified in the Results section) for 10 min at room temperature, in the presence of 1 μg of poly d(I)-d(C) oligomer (Roche Molecular Biochemicals, Indianapolis, Ind.) and DNA-binding buffer as described previously (Yang et al., Cell Growth Differ 1993, 4(7):595-602). The complexes were then separated on a 7.5% polyacrylamide gel and autoradiographed.
# Proteins Isolation: Cells were incubated in a 37° C. with 5% CO2, followed by mock or treatments specified in the results section. Total proteins were then isolated using RIPA buffer. The protease inhibitors aprotinin (1 μg/ml), leupeptin (1 μg/ml), pepstatin (1 μg/ml), phenylmethylsulfonyl fluoride (0.1 mM) and the phosphatase inhibitor Na3VO4 (1 mM), NaF (1 mM) were added to all buffers. The protein concentrations were determined using the Coomassie Plus Protein Assay Reagent (Pierce, Rockford, Ill.), and aliquots of the proteins were stored at −80° C.
# A549 cells = assay: Apoptosis in A549 cells treated with TPA, PEITC-NAC or TPA plus PEITC-NAC (photography, DAPI staining); assay type: cell-based, human; conditions: 100 nM TPA
# Source text: Assay for single cell DNA strand breaks: A549 cells treated with or without TPA, PEITC-NAC or TPA plus PEITC-NAC were collected at the times specified in the text, cytocentrifuged and stained with 4′-6′diamidino-2-phenylindole (DAPI). The photographs were taken using an Olympus AX 70 microscope (Melville, N.Y.) with fluorescence and SPOT RT Slider digital image system (Diagnostic Instruments Inc., Sterling Heights, Mich.). Arrows indicated the typical apoptotic features of DNA strand breakage and nuclear fragmentation.
# TPA (100 nM) was added to A549 cells 12 h prior to addition of PEITC-NAC, which was added 24 h before photography of cells, protein isolation, or DAPI staining. […] These cells were treated identically, but were stained with the DNA fluorochrome DAPI.
# [10] = high dose (3 or 8 mmol/kg diet)
# [11] = high dose (PEITC, SFN 3 mmol/kg diet; PEITC-NAC, SFN-NAC, NAC 8 mmol/kg diet)
# [12] = low dose (1.5 or 4 mmol/kg diet)
# [13] = low dose (PEITC, SFN 1.5 mmol/kg diet; PEITC-NAC, SFN-NAC 4 mmol/kg diet)
Compound,mean numbers of lung adenomas compared with carcinogen control mice [1],"Adenocarcinoma Incidence (%) [1, 10]","Adenocarcinoma Multiplicity mean ± SD [1, 10]","Adenoma Incidence (%) [1, 10]","Adenoma Multiplicity mean ± SD [1, 11]","Adenocarcinoma Incidence (%) [1, 12]","Adenocarcinoma Multiplicity mean ± SD [1, 12]","Adenoma Incidence (%) [1, 12]","Adenoma Multiplicity mean ± SD [1, 13]",aberrant crypt foci formation [8],further results
"CC(=O)NC(CSC(=S)NCCCC[S+](C)[O-])C(=O)O (centres unmarked) [SFN-NAC, sulforaphane-NAC]",decreases were significant,5/31 (16.13%),0.42 ± 1.01,31/31 (100%),9.06 ± 5.35,2/19 (10.53%),0.32 ± 0.92,18/19 (94.74%),8.53 ± 4.32,,
"CC(=O)N[C@@H](CS)C(=O)O [NAC, N-acetyl-L-cysteine]",decreases were significant,4/8 (50%),1.10 ± 1.51,8/8 (100%),,,,,,,
"CC(=O)N[C@@H](CSC(=S)NCc1ccccc1)C(=O)O [BITC-NAC, benzyl isothiocyanate-NAC]",,,,,,,,,,,"increase in apoptosis, non-tumorous lung tissue ([2]; after 140 days): 2.4 fold; apoptotic index, fold elevation ([2]; lung tissue at 84 days, before tumors appeared): approximately 2 fold; JNK 1 (p46) phosphorylation level (JNK 1 and 2): increase; JNK 2 (p54) phosphorylation (JNK 1 and 2): only slightly induced; phosphorylation of p53 at Ser15 (p53 [3]): moderate increase; tumor multiplicity ([4]; 15 μmol/g diet after B(a)P, at termination, B(a)P control 6.1±3.1): 3.7±2.9 tumors/mouse; Tumor Incidence (%), lung adenoma ([4]; 15 μmol/g diet from 2 days after 20 μmol B(a)P, 140 days): 94%; Tumor multiplicity (no. of tumors/mice), lung adenoma ([4]; 15 μmol/g diet from 2 days after 20 μmol B(a)P, 140 days, mean ± SD): 3.72 ± 2.90^b no. of tumors/mice; average body weight at termination ([4]; 15 μmol/g diet, controls 25.8 g and 25.7 g): 22.9 g; tumor reduction ([4]; versus B(a)P control diet group, at termination): 39%; stability in diet [5]: stable for at least one month"
"S=C=NCCc1ccccc1 [PEITC, phenethyl isothiocyanate]",,6/32 (19%)*,,31/32 (96.90%),8.81 ± 3.96,7/20 (35%),1.15 ± 1.85,19/20 (95%),7.25 ± 4.43,inhibited foci formation,"Overall % Survival ([1]; high dose, adjusted for scheduled sacrifices, control 29.8%): 21.10%; p53 transactivation (p53 [6]): induces p53 transactivation in a dose- and time-dependent manner; induction of apoptosis [7]: did not induce apoptosis"
"CCCCCCCCCCCCCC(=O)O[C@@H]1[C@@H](C)[C@@]2(O)[C@@H](C=C(CO)C[C@]3(O)C(=O)C(C)=C[C@@H]23)[C@@H]2C(C)(C)[C@]12OC(C)=O [TPA, 12-O-tetradecanoylphorbol-13-acetate]",,,,,,,,,,,AP-1 binding activity [9]: specifically induced; cell growth / apoptosis with TPA alone (A549 cells): appear to be growing well; also recorded: did not cause apoptosis in A549 cells
"C[S+]([O-])CCCCN=C=S (centres unmarked) [SFN, sulforaphane]",,10/32 (31.3%),0.84 ± 1.48,30/32 (93.8%),8.84 ± 5.72,4/20 (20%),0.30 ± 0.64,20/20 (100%),9.25 ± 4.15,inhibited foci formation,"malignant tumor multiplicity ([1]; low dose groups, initiated control group 2.1): 0.9 tumors/mouse"

# — patent US20060241178A1, “Compositions and methods for treating lung cancer” (priority 2002, published 2006)
